Entries after “also recorded” stand apart in the source; their conditions may differ.
What was measured:
[1] = Distribution of compounds in major organs after single gavage administration; type: in vivo, Sprague Dawley rats; conditions: gavage 5 mg/kg single dose, 1 h and 4 h, SD rats, result in words (FIG. 2)
Method: 0.25-0.3 ml of Systemic blood (jugular vein) was taken at each blood collection point to be added into an EDTA-K2 anticoagulant tube, uniform mixing was performed by gentle inversion, and the obtained mixture was stored on crushed ice for transport. Collection plan: PO blood collection point: 1 h and 4 h after administration. Animals were euthanized, tissues and organs were taken, and livers (0.3-0.5 g of liver was taken at a fixed position of a large lobe of liver), kidneys, and hearts were weighed, placed in 5 ml centrifuge tubes, quick-frozen on dry ice, and cryopreserved at -20°C.
A solvent (methanol:acetonitrile:water=25:25:50) was added for grinding and homogenization, and this process was performed rapidly by using a tissue grinder.
A solvent was added to the liver to 3 ml, one large steel ball and one small steel ball were added, and grinding was performed at 50 Hz for 60 s. Vortexing was performed for uniform mixing, and centrifugation was performed at 8000 rpm for 5 min. 0.3 ml of a supernatant was taken, a solvent was added until 3 ml, vortexing was performed for uniform mixing, and centrifugation was performed at 8000 rpm for 5 min. 0.1 ml of a supernatant was taken, 0.2 ml of acetonitrile was added, vortexing was performed for 30 s, and centrifugation was performed at 10000 rpm for 5 min. A supernatant was taken and sent for testing to analyze the drug content. […]

THRβ = molecular target: T1, THRβ (Homo sapiens, UniProt P10828); assay: HTRF test of agonist-induced SRC3-2 coactivator peptide recruitment to THRβ-LBD; type: biochemical
T1 sequence (P10828 217-461 limits assumed): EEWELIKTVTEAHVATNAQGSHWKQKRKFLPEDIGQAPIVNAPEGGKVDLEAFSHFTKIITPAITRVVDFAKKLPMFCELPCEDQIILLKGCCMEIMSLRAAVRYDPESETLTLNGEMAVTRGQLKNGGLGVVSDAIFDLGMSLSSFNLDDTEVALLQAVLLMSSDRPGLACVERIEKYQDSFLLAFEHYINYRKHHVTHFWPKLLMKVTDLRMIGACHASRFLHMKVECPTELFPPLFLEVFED
Method: 1. Experiment of binding of compounds to THRβ and THRα
Test principle: The effect of test compounds on THRβ and THRα was tested by using a method of HTRF. An MAb Anti GST-Eu cryptate antibody binds to GST-tagged THRα-LBD (or THRβ-LBD), while Streptavidin-XL665 binds to a biotin-labeled SRC3-2 coactivator peptide. […] At the same time, the resulting decrease in the distance between XL665-labeled SRC3-2 and an Eu-anti-GST antibody increases a THRFRET signal. The agonistic capacity at this target was assessed by the effect of compounds on the activity of THRα-LBD (THRβ-LBD) at different concentrations.
Test method: THRβ test procedures:
• (1) a 1×reaction solution was prepared. • (2) Preparation of compounds: the compound test starting concentration was 20 µM, 3-fold dilution was performed, 10 concentrations were set, and duplicate testing was set for each concentration. 100-fold dilution was performed in a 384-well Source plate to a corresponding solution with a final concentration, and then 200 nL of the solution was transferred to a 384-well reaction plate with Echo550 to be tested. 200 nL of 100% DMSO and a test article were respectively transferred to Min and Max wells. • (3) A 2×protein solution was prepared from the 1×reaction solution. • (4) A 4×SRC3-2 solution was prepared from the 1×reaction solution. • (5) A mixed solution of 4×GST-Eu cryptate and XL665 was prepared from the 1×reaction solution. • (6) 10 µl of the 2×protein solution was added to each well of the reaction plate, centrifugation was performed at 1000 rpm for 1 min, and incubation was performed at room temperature for 30 min. • (7) 5 µl of the 4×SRC3-2 solution was added to each well of the reaction plate, and centrifugation was performed at 1000 rpm for 1 min. • (8) 5 µL of the mixed solution of 4×GST-Eu cryptate and XL665 was added to each well of the reaction plate, centrifugation was performed at 1000 rpm for 1 min, and incubation was performed at 25°C. • (9) A fluorescence signal was read by using EnVision.

[2] = In vivo pharmacokinetic study of elimination phase half-life after single IV bolus; design: species or system Sprague Dawley rats; conditions: rat, blood, iv, I.V bolus, 5 mg/kg, rats, read-out: Elimination phase half-life (T1/2) (converted)
Method: Blood samples were collected from animals (IV group) before administration and at time points of 0.083 h, 0.25 h, 0.5 h, 1 h, 2 h, 4 h, 8 h, and 24 h after the end of administration. • Sample treatment: prior to blood collection, a centrifuge tube with 10 µl of EDTA-K2 and 1.2 mL of 50% acetonitrile-DMSO (a volume ratio of whole blood to 50% acetonitrile-DMSO is approximately 1:4) was placed in an ice box filled with crushed ice. The collected blood was added to the centrifuge tube, vortexed for at least 5 min, and then temporarily stored and transported in the ice box filled with crushed ice; and the blood was centrifuged at 12,000 g for 10 min at 4°C, wherein centrifugation was completed within 1 h after blood collection. A whole blood supernatant after centrifugation was transferred to a newly labeled tube, and transferred to -60°C or below for storage for analytical testing.

Structure (SMILES): [2H]C([2H])([2H])C(c1c(C)c(Oc2c(Cl)cc(-n3nc(CF)c(=O)[nH]c3=O)cc2Cl)n[nH]c1=O)C([2H])([2H])[2H] [Compound 6]
- liver distribution [1]: significant liver distribution advantage over Resmetirom and the compound X1; also recorded: significant liver distribution advantage over Resmetirom and a compound X1
- EC50 (THRβ; HTRF, starting concentration 20 µM, 3-fold dilution, 10 concentrations, duplicate, read-out: THRβ (EC50)): 6.5 nM
- agonistic activity on THRβ compared with Resmetirom (THRβ; result in words): significantly better than that of Resmetirom
- selectivity of agonistic effect for THRβ over THRα (THRβ; result in words): selective agonistic effects on THRβ
- half-life [2]: 468 min
